Patent publication US20260007599A1, “TICAGRELOR IV FORMULATIONS FOR USE IN THE TREATMENT OF GRAM-POSITIVE BACTEREMIA” (Hyloris Developments SA, priority 2023, published 2026)

Columns and labels:
Format in all cases: physicochemical
[1] = Flocculation test (20 μl sample material in 1 ml diluent)
[2] = Storage stability of ticagrelor 6 mg/ml in HPβCD 40% w/w, phosphate buffer pH 7.5, 40° C./75% RH
Description: A Gradient HPLC method was used to analyze impurities in formulations using a YMC-Pack Pro C18 column (100×4.6 mm, S-3 μm 12 nm). Good separation was obtained for all the impurities. Following the experiment described in example 2, a storage stability study at pH 7.5 was conducted First HPβCD was dissolved in a phosphate buffer solution of pH 7.5 prepared separately in water. […] The solution was filtered through a 0.22 micrometer filter and filled in USP Type I amber colored glass vials. The vials were stoppered and stored. All precautions were taken during manufacturing, such as N2 purging and avoiding direct exposure to light.

[3] = Bulk hold study, ticagrelor 8 mg/ml in HPβCD 30% w/w, phosphate buffer pH 7.5
Description: To investigate the impact of temperature and hold time, a new composition was prepared as per below Table 19. In first step a phosphate buffer at pH 7.5 was prepared and the buffered solution was heated to 40° C.-45° C. HPβCD was added to the buffered solution under continuous mixing. […] It usually took 30 mins to 4 hours depending on batch size. Then this solution was filtered through a 0.22-micron filter and packed in suitable clear or amber colored glass vials.

[4] = Storage stability of Example 14 aqueous ticagrelor solutions; settings: 5-15 mg/ml ticagrelor, 20-40% w/w HPβCD; 40° C. and 75% Relative Humidity
Description: Aqueous ticagrelor solutions for intravenous administration were prepared with the following composition: • 5-15 mg/ml Ticagrelor • 20-40% w/w HPβCD • Q·S to 1 ml Acetate or Phosphate Buffer pH 4.5 to 6.5 • pH solution: 6-8 • Osmolality solution: 350-900 mOsm/kg
Packaged in a glass vial, containing 5-15 ml aqueous ticagrelor solution.
Storage stability: at least 3 months at 40° C. and 75% Relative Humidity

[5] = bulk hold at 45° C. in glass vials, T = 1 h
[6] = bulk hold at 45° C. in glass vials, T = 110 h
[7] = bulk solution in sealed vials, T = 1 M, 25° C.
[8] = bulk solution in sealed vials, T = 1 M, 40° C.

For CCCSc1nc(N[C@@H]2C[C@H]2c2ccc(F)c(F)c2)c2nnn([C@@H]3C[C@H](OCCO)[C@@H](O)[C@H]3O)c2n1 [ticagrelor, (1S,2S,3R,5S)-3-{7-[(1R,2S)-2-(3,4-difluorophenyl)cyclopropylamino]5-(propylthio)-3H-(1,2,3)triazolo (4,5-D)pyrimidin-3-yl}-5-(2 hydroxyethoxy) cyclopentane-1,2-diol], the Flocculation test ([1]; HPβCD 30% w/w, ticagrelor 5 mg/ml) was “passed”, the Flocculation test ([1]; HPβCD 35% w/w, ticagrelor 5 mg/ml) was “passed” and the Flocculation test ([1]; HPβCD 40% w/w, ticagrelor 5 mg/ml) was “passed”. For the same compound, the Flocculation test ([1]; HPβCD 40% w/w, ticagrelor 10 mg/ml) was “passed”, the Flocculation test ([1]; SBECD 40% w/w, ticagrelor 5 mg/ml) was “passed” and the Acetal impurity ([2]; T = 0, 40° C./75% RH) was 0.05%. The Amine impurity ([2]; T = 0, 40° C./75% RH) was 0.04%, the Assay ticagrelor ([2]; T = 0, 40° C./75% RH) was 104.27% and the Regiomer impurity ([2]; T = 0, 40° C./75% RH) was 0.00%. For the same compound, the “Sum impurities >0.05” value ([2]; T = 0, 40° C./75% RH) was 0.11%, the Total impurities ([2]; T = 0, 40° C./75% RH) was 0.31% and the Triol impurity ([2]; T = 0, 40° C./75% RH) was 0.04%. It also gave an Acetal impurity ([2]; T = 4 weeks, 40° C./75% RH) of 0.05%, an Amine impurity ([2]; T = 4 weeks, 40° C./75% RH) of 0.05% and an Assay ticagrelor ([2]; T = 4 weeks, 40° C./75% RH) of 104.47%. For the same compound, the Regiomer impurity ([2]; T = 4 weeks, 40° C./75% RH) was 0.01%, the “Sum impurities >0.05” value ([2]; T = 4 weeks, 40° C./75% RH) was 0.14% and the Total impurities ([2]; T = 4 weeks, 40° C./75% RH) was 0.32%. It also gave a Triol impurity ([2]; T = 4 weeks, 40° C./75% RH) of 0.05%, an Acetal impurity ([2]; T = 8 weeks, 40° C./75% RH) of 0.05% and an Amine impurity ([2]; T = 8 weeks, 40° C./75% RH) of 0.05%. For the same compound, the Assay ticagrelor ([2]; T = 8 weeks, 40° C./75% RH) was 102.59%, the Regiomer impurity ([2]; T = 8 weeks, 40° C./75% RH) was 0.04% and the “Sum impurities >0.05” value ([2]; T = 8 weeks, 40° C./75% RH) was 0.15%. For the same compound, the Total impurities ([2]; T = 8 weeks, 40° C./75% RH) was 0.29%, the Triol impurity ([2]; T = 8 weeks, 40° C./75% RH) was 0.05% and the Acetal impurity ([2]; T = 12 weeks, 40° C./75% RH) was 0.05%. For the same compound, the Amine impurity ([2]; T = 12 weeks, 40° C./75% RH) was 0.05%, the Assay ticagrelor ([2]; T = 12 weeks, 40° C./75% RH) was 102.31% and the Regiomer impurity ([2]; T = 12 weeks, 40° C./75% RH) was 0.08%. For the same compound, the “Sum impurities >0.05” value ([2]; T = 12 weeks, 40° C./75% RH) was 0.23%, the Total impurities ([2]; T = 12 weeks, 40° C./75% RH) was 0.41% and the Triol impurity ([2]; T = 12 weeks, 40° C./75% RH) was 0.04%. The Acetal impurity ([2]; T = 24 Weeks, 40° C./75% RH) was 0.05%, the Amine impurity ([2]; T = 24 Weeks, 40° C./75% RH) was 0.07% and the Assay ticagrelor ([2]; T = 24 Weeks, 40° C./75% RH) was 104.39%. The Regiomer impurity ([2]; T = 24 Weeks, 40° C./75% RH) was 0.16%, the “Sum impurities >0.05” value ([2]; T = 24 Weeks, 40° C./75% RH) was 0.33% and the Total impurities ([2]; T = 24 Weeks, 40° C./75% RH) was 0.35%. The Triol impurity ([2]; T = 24 Weeks, 40° C./75% RH) was 0.05%, the “storage stability (conclusion)” value ([2]; accelerated storage conditions of 40° C. and 75% Relative Humidity) was “good storage stability” and the “Acetal impurity, average content” value ([3]; bulk hold at 30° C., T0) was 0.04%. For the same compound, the “Amine impurity, average content” value ([3]; bulk hold at 30° C., T0) was 0.06%, the Assay ticagrelor ([3]; bulk hold at 30° C., T0) was 105.60% and the “Regiomer impurity, average content” value ([3]; bulk hold at 30° C., T0) was 0.00%. The “Sum impurities >0.05” value ([3]; bulk hold at 30° C., T0) was 0.10%, the Total impurities ([3]; bulk hold at 30° C., T0) was 0.21% and the “Triol Impurity, average content” value ([3]; bulk hold at 30° C., T0) was 0.05%. For the same compound, the “Acetal impurity, average content” value ([3]; bulk hold at 30° C., T4 W) was 0.04%, the “Amine impurity, average content” value ([3]; bulk hold at 30° C., T4 W) was 0.06% and the Assay ticagrelor ([3]; bulk hold at 30° C., T4 W) was 106.14%. The “Regiomer impurity, average content” value ([3]; bulk hold at 30° C., T4 W) was 0.00%, the “Sum impurities >0.05” value ([3]; bulk hold at 30° C., T4 W) was 0.06% and the Total impurities ([3]; bulk hold at 30° C., T4 W) was 0.21%. The “Triol Impurity, average content” value ([3]; bulk hold at 30° C., T4 W) was 0.04%, the “Acetal impurity, average content” value [3, 5] was 0.04% and the “Amine impurity, average content” value [3, 5] was 0.05%. For the same compound, the Assay ticagrelor [3, 5] was 107.87%, the “Impurity at relative retention time 1.33, average content” value [3, 5] was 0.07% and the “Sum impurities >0.05” value [3, 5] was 0.12%. The Total impurities [3, 5] was 0.20%, the “Triol Impurity, average content” value [3, 5] was 0.04% and the “Acetal impurity, average content” value [3, 6] was 0.04%. For the same compound, the “Amine impurity, average content” value [3, 6] was 0.07%, the Assay ticagrelor [3, 6] was 109.10% and the “Impurity at relative retention time 1.33, average content” value [3, 6] was 0.03%. For the same compound, the “Sum impurities >0.05” value [3, 6] was 0.11%, the Total impurities [3, 6] was 0.28% and the “Triol Impurity, average content” value [3, 6] was 0.05%. For the same compound, the “Acetal impurity, average content” value [3, 7] was 0.03%, the “Amine impurity, average content” value [3, 7] was 0.06% and the Assay ticagrelor [3, 7] was 107.22%. The “Impurity at relative retention time 1.03, average content” value [3, 7] was 0.02%, the “Impurity at relative retention time 1.33, average content” value [3, 7] was 0.03% and the “Regiomer impurity, average content” value [3, 7] was 0.03%. For the same compound, the “Sum impurities >0.05” value [3, 7] was 0.06%, the Total impurities [3, 7] was 0.23% and the “Triol Impurity, average content” value [3, 7] was 0.01%. The “Acetal impurity, average content” value [3, 8] was 0.00%, the “Amine impurity, average content” value [3, 8] was 0.06% and the Assay ticagrelor [3, 8] was 105.16%. For the same compound, the “Impurity at relative retention time 1.03, average content” value [3, 8] was 0.02%, the “Impurity at relative retention time 1.33, average content” value [3, 8] was 0.08% and the “Regiomer impurity, average content” value [3, 8] was 0.08%. For the same compound, the “Sum impurities >0.05” value [3, 8] was 0.21%, the Total impurities [3, 8] was 0.28% and the “Triol Impurity, average content” value [3, 8] was 0.00%. For the same compound, the Storage stability [4] was “at least 3 months”.
